# Data taken from patent US20250308625A1, “METHOD FOR ESTIMATING A DYNAMIC MOLECULAR PROGRAM OF A CELL” (Yale University, priority 2022, published 2025).
# Biological target: T1, ESRRA (Homo sapiens, UniProt P11474)
# T1 construct: endogenous in cells; host or cells: HCC38 CD44hi cells (2D culture)
# T1 sequence (P11474 1-423): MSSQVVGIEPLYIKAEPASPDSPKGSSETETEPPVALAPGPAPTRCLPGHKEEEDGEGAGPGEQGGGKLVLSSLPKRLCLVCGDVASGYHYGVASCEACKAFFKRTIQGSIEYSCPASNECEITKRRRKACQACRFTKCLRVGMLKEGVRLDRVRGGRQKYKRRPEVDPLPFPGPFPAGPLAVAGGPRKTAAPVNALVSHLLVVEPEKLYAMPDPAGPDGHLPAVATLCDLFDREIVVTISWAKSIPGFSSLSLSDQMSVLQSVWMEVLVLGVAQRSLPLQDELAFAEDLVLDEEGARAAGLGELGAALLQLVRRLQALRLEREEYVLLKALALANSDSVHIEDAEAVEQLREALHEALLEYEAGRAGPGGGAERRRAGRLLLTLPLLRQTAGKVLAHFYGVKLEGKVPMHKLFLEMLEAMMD
# Test: Western blot of CDH1 expression after ESRRA knockdown (siRNA) or ESRRA inhibition (C14) in 2D cultured HCC38 CD44hi cells
# Assay type: cell-based
# Conditions: 2D culture, C14 at 5 and 10 μM vs DMSO, 48 hours post-treatment, normalized to β-Actin, n=3, p≤0.05
# Protocol: Preliminary validation of the MET network included an in-vitro knockdown of ESRRA in HCC38 CD44^hi cells (n=3 biological replicates). Predesigned siRNA specific to ESRRA and scrambled siRNA were purchased from Integrated DNA Technologies, USA (TriFECTa® RNAi Kit, Design ID hs.Ri.ESRRA.13). HCC38 CD44^hi cells were seeded in 24 well plates at a density of 9000 cells/well and ESRRA knockdown was performed using 10 nM of pooled siRNA (hs.Ri.ESRRA.13.1, hs.Ri.ESRRA.13.2 and hs.Ri.ESRRA.13.3) using Lipofectamine RNAiMax (ThermoFisher Scientific, USA) as per the manufacturer's protocol. Cells were harvested for protein extraction 48 hrs post siRNA transfection to study the downstream effect on CDH1 expression upon ESRRA knockdown using western blot. […]
# Proteins were extracted from control and treated cells using ice cold modified RIPA buffer (50 mM Tris-HCl pH 7.5, 150 mM NaCl, 1 mM EDTA, 1 mM EGTA, 1% Triton X-100, 0.1% SDS with supplemented with 1× protease and phosphatase inhibitor cocktails). […] Proteins were quantified using the Pierce™ BCA Protein Assay Kit (Cat. 23227, Thermo Fisher Scientific, USA) as per the manufacturer's instructions. […] The signal intensity of the bands in western blots was quantified using Image Studio Lite version 5.2 (LI-COR Biotechnology, USA).
structure (smiles),measurement,value
"CC(C)c1cccc(-n2cc(C(=O)c3ccccc3N)nn2)c1 [ESRRA antagonist, (2-Aminophenyl) (1-(3-isopropylphenyl)-1H-1,2,3-triazol-4-yl) methanone]","CDH1 expression (western blot, relative fold-change)",significant increase
